Usually Vss stands for a proportionality between amount in the body and measured concentration, not a real space. As a reminder, the Cmax is the highest concentration seen after dosing. For orientation: half-life means the time needed for the level to fall by half in the phase considered. Usually Tmax stands for the time from dosing to the highest level.

From patent US20230233690A1, “ANDROGEN RECEPTOR PROTEIN DEGRADERS” (THE REGENTS OF THE UNIVERSITY OF MICHIGAN, priority 2020, published 2023) come the findings set out here.

Series [1] is described as follows: PK parameters in male ICR mice. Format: in vivo. Here is the method:
(§1) The pharmacokinetics (PK) of representative Compounds of the Disclosure were evaluated in mice or rats to provide an assessment of their oral bioavaibility. All animal experiments were performed under the guidelines of the University of Michigan Committee for Use and Care of Animals and using an approved animal protocol.

Series [2] can be described thus: PK parameters in male SD rats. Type of series: in vivo. The conditions noted are these: for AUC(0-t) / clearance / Vd / Cmax / half-life: rat, in vivo; for clearance: read-out: Cl-obs; for Vd: read-out: Vss. Here is the method:
as §1

Series [3] deals with AR protein. In words: Western blotting of AR protein degradation in MDA-MB-453 cells. Type of series: cell-based. The note with it: 100 nM, 24 hr treatment. Here is the method: The appropriate cell line, e.g., prostate cancer LNCaP, Vcap, or MDA-MB-453 cell line, was treated with Compounds of the Disclosure. The treated cells were lysed with RIPA buffer. The AR level in the cell lysates was examined by western blotting and a specific AR antibody (ab194196, Abcam, Cambridge, Mass. 02139) with concentration of 1:20,000. GAPDH was used as a loading control.
(§2) Bands were quantified with ImageJ software. The relative numbers of each band obtained from normalization with its corresponding GAPDH level were compared with Prism 8 software. The DC50 values were produced from Prism 8, and the DC90 values were calculated with an equation=Bottom+(Top−Bottom)/(1+10^((Log EC50−X)*HillSlope) based on DC50 and Hillslope values.
The amount of AR protein degradation in LNCaP, VCap, and MDA-MB-453 cells caused representative Compounds of the Disclosure at the concentrations indicated is presented in Table 4 and Table 5.
For orientation: In western blotting, separated proteins are transferred to a membrane and probed.

The target in series [4] is T1, AR protein (Homo sapiens, UniProt P10275).
T1 construct: endogenous in cells; host or cells: VCaP
T1 sequence (P10275 1-920): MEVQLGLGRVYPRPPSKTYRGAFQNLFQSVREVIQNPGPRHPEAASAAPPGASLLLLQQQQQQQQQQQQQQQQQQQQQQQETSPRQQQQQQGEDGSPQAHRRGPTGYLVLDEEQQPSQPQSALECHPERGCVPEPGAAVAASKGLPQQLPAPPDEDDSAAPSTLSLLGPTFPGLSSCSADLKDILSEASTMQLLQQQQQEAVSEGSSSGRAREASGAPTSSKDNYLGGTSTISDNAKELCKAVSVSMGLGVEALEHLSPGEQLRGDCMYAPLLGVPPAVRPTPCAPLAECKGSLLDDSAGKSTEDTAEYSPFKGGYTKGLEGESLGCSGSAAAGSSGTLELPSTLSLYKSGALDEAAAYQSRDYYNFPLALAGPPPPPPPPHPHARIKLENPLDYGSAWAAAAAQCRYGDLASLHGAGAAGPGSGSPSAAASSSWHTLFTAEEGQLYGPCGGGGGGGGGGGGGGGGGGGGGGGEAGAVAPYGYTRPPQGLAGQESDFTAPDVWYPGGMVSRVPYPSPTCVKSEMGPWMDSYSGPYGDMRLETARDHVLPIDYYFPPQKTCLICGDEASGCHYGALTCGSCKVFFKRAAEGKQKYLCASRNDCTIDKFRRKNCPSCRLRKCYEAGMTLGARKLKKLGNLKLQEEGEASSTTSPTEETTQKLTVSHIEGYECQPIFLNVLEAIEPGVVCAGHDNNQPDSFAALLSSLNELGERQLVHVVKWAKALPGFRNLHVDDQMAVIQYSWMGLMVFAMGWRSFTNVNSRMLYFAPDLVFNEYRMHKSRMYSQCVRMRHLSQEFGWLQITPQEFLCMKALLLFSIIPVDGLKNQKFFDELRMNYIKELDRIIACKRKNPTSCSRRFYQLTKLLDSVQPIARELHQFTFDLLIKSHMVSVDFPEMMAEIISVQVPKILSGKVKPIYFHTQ
In words: Western blotting of AR protein degradation in VCaP cells. Format: cell-based. Here is the method:
The treated cells were lysed with RIPA buffer. […] GAPDH was used as a loading control.
as §2

Series [5] in a line: PK parameters in male mice (Table 9). Format: in vivo. As to the method: as §1

In series [1] (IV 2 mg/kg), `CC1(C)[C@H](NC(=O)c2ccc(N3CCN(C4CCN(c5ccc6c(c5)C(=O)N(C5CCC(=O)NC5=O)C6=O)CC4)CC3)cc2)C(C)(C)[C@H]1Oc1ccc(C#N)c(Cl)c1` (some centres unmarked) [Cpd. No. 114, N-((1r,3r)-3-(3-chloro-4-cyanophenoxy)-2,2,4,4-tetramethylcyclobutyl)-4-(4-(1-(2-(2,6-dioxopiperidin-3-yl)-1,3-dioxoisoindolin-5-yl)piperidin-4-yl)piperazin-1-yl)benzamide] returned an AUC(0-t) of 15758.8 ng·h/mL, a Cl-obs of 1.7 mL/min/kg and a Vss of 1.5 L/kg. Also, in series [1] (PO 5 mg/kg), the AUC(0-t) came to 14587.7 ng·h/mL, the Cmax is 980.1 ng/mL, the F turned out to be 37.0% and the T1/2 is listed as 11.2 h. In series [2] (PO 5 mg/kg), this compound showed an F of 11.4%, an AUC(0-t) of 4160 ng·h/mL, a Cmax of 100 ng/mL and a half-life of 8.9 h. Besides, in series [2] (IV 2 mg/kg), the AUC(0-t) was determined as 1190 ng·h/mL, the clearance was found to be 7.7 mL/min/kg and the Vd stood at 2.5 L/kg.
In series [1] (IV 1 mg/kg), `CC1(C)[C@H](NC(=O)c2ccc(N3CCC(N4CCN(c5ccc6c(c5)C(=O)N(C5CCC(=O)NC5=O)C6=O)CC4)CC3)cc2)C(C)(C)[C@H]1Oc1ccc(C#N)c(Cl)c1` (some centres unmarked) [compound 189, N-((1r,3r)-3-(3-chloro-4-cyanophenoxy)-2,2,4,4-tetramethylcyclobutyl)-4-(4-(4-(2-(2,6-dioxopiperidin-3-yl)-1,3-dioxoisoindolin-5-yl)piperazin-1-yl)piperidin-1-yl)benzamide] showed an AUC(0-t) of 4333.7 ng·h/mL, a Cl-obs of 2.2 mL/min/kg and a Vss of 3.8 L/kg. For the same compound, in series [1] (PO 3 mg/kg), the AUC(0-t) amounted to 3127 ng·h/mL, the Cmax was 207 ng/mL, the F was 24% and the T1/2 is reported as 12.4 h.
Turning to `N#Cc1ccc(O[C@@H]2CCC[C@@H](Oc3ccc(C4CCN(CC5CCN(c6cccc7c6C(=O)N(C6CCC(=O)NC6=O)C7=O)CC5)CC4)cc3)C2)cc1Cl` (some centres unmarked) [compound 54], the “AR protein degradation MDA-MB-453 100 nM” value in series [3] is recorded as “C (>10% degradation but <50% (24 hr treatment))”.
Still for that read-out and setting: to `N#Cc1ccc(O[C@@H]2CCC[C@@H](Oc3ccc(N4CCN(CC5CCN(c6ccc7c(c6)C(=O)N(C6CCC(=O)NC6=O)C7=O)CC5)CC4)cc3)C2)cc1Cl` (some centres unmarked) [compound 55] belongs “C (>10% degradation but <50% (24 hr treatment))”.
In series [1] (IV 1 mg/kg), `CC1(C)[C@H](NC(=O)c2ccc(N3CCC(CN4CCN(c5ccc6c(c5)C(=O)N(C5CCC(=O)NC5=O)C6=O)CC4)CC3)cc2)C(C)(C)[C@H]1Oc1ccc(C#N)c(Cl)c1` (some centres unmarked) [compound 190, N-((1r,3r)-3-(3-chloro-4-cyanophenoxy)-2,2,4,4-tetramethylcyclobutyl)-4-(4-((4-(2-(2,6-dioxopiperidin-3-yl)-1,3-dioxoisoindolin-5-yl)piperazin-1-yl)methyl)piperidin-1-yl)benzamide] registered an AUC(0-t) of 2565 ng·h/mL, a Cl-obs of 3.2 mL/min/kg and a Vss of 6.8 L/kg. Further, in series [1] (PO 3 mg/kg), the AUC(0-t) was 2550.1 ng·h/mL, the peak concentration (Cmax) is 134.4 ng/mL, the F came to 33.1% and the T1/2 is listed as 67.8 h.
Take `CC1(C)[C@H](NC(=O)c2ccc(N3CCN(C4CN(c5ccc6c(c5)C(=O)N(C5CCC(=O)NC5=O)C6=O)C4)CC3)cc2)C(C)(C)[C@H]1Oc1ccc(C#N)c(Cl)c1` (some centres unmarked) [Cpd. No. 113, N-((1r,3r)-3-(3-chloro-4-cyanophenoxy)-2,2,4,4-tetramethylcyclobutyl)-4-(4-(1-(2-(2,6-dioxopiperidin-3-yl)-1,3-dioxoisoindolin-5-yl)azetidin-3-yl)piperazin-1-yl)benzamide]: the F in series [1] (PO 5 mg/kg) stood at 62.2%; in series [2] (PO 5 mg/kg), 25.0%. In addition, the AUC(0-t) in series [1] (mouse, in vivo, IV 2 mg/kg, read-out: AUC0-t) amounted to 14600 ng·h/mL; in series [1] (mouse, in vivo, PO 5 mg/kg, read-out: AUC0-t) it was 22700 ng·h/mL; in series [2] (IV 2 mg/kg) it was 9140 ng·h/mL; in series [2] (PO 5 mg/kg) it was 5720 ng·h/mL. Besides, the clearance in series [1] (mouse, in vivo, IV 2 mg/kg, read-out: Cl-obs) worked out at 1.7 mL/min/kg; in series [2] (IV 2 mg/kg), 3.1 mL/min/kg. Also, the Vd in series [1] (mouse, in vivo, IV 2 mg/kg, read-out: Vss) worked out at 1.7 L/kg; in series [2] (IV 2 mg/kg) it was 2 L/kg. Further, the half-life in series [1] (mouse, in vivo, PO 5 mg/kg) was 10.3 h; in series [2] (PO 5 mg/kg), 10.4 h. The Cmax worked out at 1820 ng/mL in series [1] (mouse, in vivo, PO 5 mg/kg, read-out: Cmax) and 414 ng/mL in series [2] (PO 5 mg/kg).
For `CC1(C)[C@H](NC(=O)c2ccc(N3CCN(CC4CN(c5ccc6c(c5)C(=O)N(C5CCC(=O)NC5=O)C6=O)C4)CC3)cc2)C(C)(C)[C@H]1Oc1ccc(C#N)c(Cl)c1` (some centres unmarked) [Cpd. No. 112, N-((1r,3r)-3-(3-chloro-4-cyanophenoxy)-2,2,4,4-tetramethylcyclobutyl)-4-(4-((1-(2-(2,6-dioxopiperidin-3-yl)-1,3-dioxoisoindolin-5-yl)azetidin-3-yl)methyl)piperazin-1-yl)benzamide], in series [1] (IV 2 mg/kg), the AUC(0-t) stood at 11034.8 ng·h/mL, the Cl-obs is 1.9 mL/min/kg and the Vss came out at 2.7 L/kg. Also, in series [1] (PO 5 mg/kg), the AUC(0-t) worked out at 20599.8 ng·h/mL, the Cmax is 1389.4 ng/mL, the F turned out to be 74.7% and the T1/2 is given as 12.0 h.
Regarding `CN(c1ccc(C#N)c(Cl)c1)[C@H]1CC[C@H](NC(=O)c2ccc(N3CC(N4CCN(c5ccc6c(c5)C(=O)N(C5CCC(=O)NC5=O)C6=O)CC4)C3)cc2)CC1` (some centres unmarked) [compound 240, N-((1r,4r)-4-((3-chloro-4-cyanophenyl)(methyl)amino)cyclohexyl)-4-(3-(4-(2-(2,6-dioxopiperidin-3-yl)-1,3-dioxoisoindolin-5-yl)piperazin-1-yl)azetidin-1-yl)benzamide], in series [4] (0.001 μM), the “% AR protein degradation in VCaP Cells” value amounted to 82%. Also, the “% AR protein degradation in VCaP Cells” value in series [4] (0.01 μM) is on record as 87%. Further, the “% AR protein degradation in VCaP Cells” value in series [4] (0.1 μM) was 88%. In series [4] (1 μM), the “% AR protein degradation in VCaP Cells” value is on record as 75%. The compound also showed a clearance in series [5] (ICR, mouse, in vivo, IV 1 mg/kg) of 3.5 mL/min/kg. Besides, in series [5] (IV 1 mg/kg), the “AUC(0-t)” value worked out at 4234 ng·h/mL, the T1/2 is listed as 7.5 h and the Vss was determined as 2.1 L/kg. Also, in series [5] (PO 3 mg/kg), the “AUC(0-t)” value stood at 8637 ng·h/mL, the Cmax came to 484 ng/mL, the T1/2 was 26.8 h and the Tmax was 4.7 h. The F in series [5] (PO 3 mg/kg vs IV 1 mg/kg) is given as 67%.
In series [1] (IV 2 mg/kg), `CC1(C)[C@H](NC(=O)c2ccc(N3CCN(CC4CCN(c5ccc6c(c5)C(=O)N(C5CCC(=O)NC5=O)C6=O)CC4)CC3)cc2)C(C)(C)[C@H]1Oc1ccc(C#N)c(Cl)c1` (some centres unmarked) [Cpd. No. 46, N-((1r,3r)-3-(3-chloro-4-cyanophenoxy)-2,2,4,4-tetramethylcyclobutyl)-4-(4-((1-(2-(2,6-dioxopiperidin-3-yl)-1,3-dioxoisoindolin-5-yl)piperidin-4-yl)methyl)piperazin-1-yl)benzamide] had an AUC(0-t) of 13298.5 ng·h/mL, a Cl-obs of 1.2 mL/min/kg and a Vss of 2.7 L/kg. In series [1] (PO 5 mg/kg), this compound had an AUC(0-t) of 22360.5 ng·h/mL, a Cmax of 1304.3 ng/mL, an F of 67.3% and a T1/2 of 18.8 h.
